In US20030158254A1, “Engineering absorption of therapeutic compounds via colonic transporters” (XenoPort, Inc., priority 2002, published 2003):

Columns and labels:
[1] = Uptake into plasma of Compound V following oral and intracolonic administration; assay type: in vivo, rat; settings: FIG. 4
Method: Rats were obtained commercially and were pre-cannulated in the both the ascending colon and the jugular vein. Animals were conscious at the time of the experiment. All animals were fasted overnight and until 4 hours post-dosing. Prodrugs were administered as a solution (in water or polyethylene glycol 400) directly into the colon via the cannula at a dose equivalent to 25 mg of gabapentin per kg. Blood samples (0.5 mL) were obtained from the jugular cannula at intervals over 8 hours and were quenched immediately by addition of acetonitrile/methanol to prevent further conversion of the prodrug. Blood samples were analyzed as described in the attached sample analysis summary.
FIG. 4 compares uptake into the plasma of Compound V following oral and intracolonic administration. […] The levels from oral and colonic administration cross at about 7 hr.

human PEPT1 = biological target: T1, human PEPT1 (Homo sapiens, UniProt P46059); test: Electrogenic transport (induced current) in Xenopus oocytes transfected with human PEPT1; assay type: cell-based
T1 construct: Rat and human PEPT1 and PEPT2 transporter cDNAs were subcloned into a modified pGEM plasmid; expressed in transfected cells; host or cells: Xenopus laevis oocytes injected with in vitro transcribed RNA
T1 sequence (P46059 1-708): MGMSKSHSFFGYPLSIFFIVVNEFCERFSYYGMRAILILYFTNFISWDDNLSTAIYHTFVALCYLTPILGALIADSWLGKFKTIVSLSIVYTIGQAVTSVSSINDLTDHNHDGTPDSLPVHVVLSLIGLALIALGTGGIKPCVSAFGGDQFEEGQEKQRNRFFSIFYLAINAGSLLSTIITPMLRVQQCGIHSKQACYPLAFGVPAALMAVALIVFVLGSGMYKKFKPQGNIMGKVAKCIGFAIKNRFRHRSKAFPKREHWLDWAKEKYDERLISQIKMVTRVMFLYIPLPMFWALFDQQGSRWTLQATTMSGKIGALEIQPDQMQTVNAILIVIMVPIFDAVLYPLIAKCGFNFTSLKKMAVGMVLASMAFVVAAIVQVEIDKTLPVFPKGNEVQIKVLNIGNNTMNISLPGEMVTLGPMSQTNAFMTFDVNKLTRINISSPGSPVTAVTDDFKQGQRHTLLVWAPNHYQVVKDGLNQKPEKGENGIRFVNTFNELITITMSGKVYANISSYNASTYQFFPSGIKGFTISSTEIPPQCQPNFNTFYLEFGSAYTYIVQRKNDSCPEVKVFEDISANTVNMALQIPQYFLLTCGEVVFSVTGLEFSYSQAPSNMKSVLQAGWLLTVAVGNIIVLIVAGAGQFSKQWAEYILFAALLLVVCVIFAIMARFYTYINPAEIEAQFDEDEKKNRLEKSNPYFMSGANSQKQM
Method: Rat and human PEPT1 and PEPT2 expressing CHO cell lines were prepared as described in PCT Application WO01/20331. Gabapentin-containing dipeptides were evaluated for interaction with the peptide transporters using a radiolabeled substrate uptake assay in a competitive inhibition format, as described in PCT Application WO01/20331. Transport-induced currents were also measured in Xenopus oocytes transfected with rat and human PEPT1 and PEPT2.
RNA preparation: Rat and human PEPT1 and PEPT2 transporter cDNAs were subcloned into a modified pGEM plasmid that contains 5′ and 3′ untranslated sequences from the Xenopus β-actin gene. These sequences increase RNA stability and protein expression. Plasmid cDNA was linearized and used as template for in vitro transcription (Epicentre Technologies transcription kit, 4:1 methylated:non-methylated guanosine triphosphate(GTP)).
Xenopus oocyte isolation. Xenopus laevis frogs were anesthetized by immersion in Tricaine ([…] in deionized water) for 15 min. […]
Electrophysiology measurements. Transport currents were measured 2-14 days after injection, using a standard two-electrode electrophysiology set-up (Geneclamp 500 amplifier, Digidata 1320/PCLAMP software and ADInstruments hardware and software were used for signal acquisition). […]

CC(C)(N)C(=O)NCC1(CC(=O)O)CCCCC1 [Compound V, a-aminoisobutyryl gabapentin]
Plasma peak after colonic dosing compared with oral ([1]; intracolonic versus oral): lower peak at a later time
Time at which plasma levels from oral and colonic administration cross ([1]; oral versus intracolonic): about 7 hr
Vmax relative to reference substrate Gly-Sar (human PEPT1; 1 mM, oocytes transfected with human PEPT1): 66%
Vmax relative to Gly-Sar in the presence of PEPT inhibitor Lys(ε-Dansyl)-Leu (human PEPT1; human PEPT transfected oocytes, with Lys(ε-Dansyl)-Leu): < 5%
